Values of other authors, collected in patent publication US7604671B2, “Perfumery for improved cold throw and burn in candle systems” (Givaudan Fragrances Corporation, priority 2004, dated 2009).

Settings: Randebrock 1986

For `CCCCCCCCCCC=O` [1-undecanal], the “experimental value for odor detection threshold in air” value is given as 0.00054 mg/m^3.
